Results from PMC6284057, “Combined Antibacterial Effects of Goat Cathelicidins With Different Mechanisms of Action” (Frontiers in Microbiology, 2018).
In brackets after ≈: the same amount, converted by molar mass. Read-outs that look alike come from different tables or passages of the source. Positions of bridges follow the written chain, without caps; N, C: chain ends. Non-standard residues stand in square brackets, D forms with d. Residues, ends and D or L forms follow the SMILES beside them. No end group written: not given here. *: point of attachment. X1 = CC[C@H](C)CCCCC(=O)*; Dab = NCC[C@H](N)C(=O)O

Legend:
[1] = test system: A. baumannii (XDR CI 2675); test: microbe, parasite or virus in culture; format: cell-based, Acinetobacter baumannii; conditions: read-out: Minimum inhibitory concentration
Method: (§1) Antimicrobial assay was performed as described previously ([Panteleev et al., 2017b]). Briefly, mid-log phase bacterial test cultures were diluted with the 2× Mueller-Hinton broth (MH, Sigma) supplemented with 1.8% NaCl or without it so that to reach a final cell concentration of 10^6 CFU/ml. 50 μl aliquots of the obtained bacterial suspension were added to 50 μl of the peptide solutions serially diluted with 0.1% water solution of bovine serum albumin (BSA) in 96-well flat-bottom polystyrene microplates (Eppendorf #0030730011). After incubation at 37°C and 900 rpm for 24 h the minimum inhibitory concentrations (MIC) were determined as the lowest peptide concentrations that prevented growth of a test microorganism observed as visible turbidity. The results were expressed as the median values determined on the basis of at least three independent experiments performed in triplicate.

[2] = test system: K. pneumoniae (XDR CI 1056); test: microbe, parasite or virus in culture; format: cell-based, Klebsiella pneumoniae; conditions: Table S2, XDR clinical isolate; NaCl content of medium not stated; read-out: Minimum inhibitory concentration
Method: as §1

E. coli XDR CI 1057 = conditions: MH broth, 0.9% NaCl
Method: Resistance induction experiments were performed using the previously described method ([Chernysh et al., 2015]) with some modifications. Briefly, on day 1, the overnight culture of wild-type bacteria was diluted with the 2× MH broth containing 1.8% NaCl so that to reach a final cell concentration of 10^6 CFU/ml. 50 μl aliquots of the obtained bacterial suspension were added to 50 μl of the peptide solutions serially diluted with 0.1% water solution of BSA in 96-well microplates (Eppendorf #0030730011). After incubation at 37°C and 900 rpm for 22 ± 2 h, MICs were determined as described above. For each subsequent daily transfer, 5 μl of the inoculum taken from the first well with a sub-inhibitory drug concentration were diluted with 1 ml of the fresh 2× MH broth supplemented with 1.8% NaCl. […] Control serial passages in the absence of the agent were also performed.

[3] = test system: P. aeruginosa (XDR CI 1049); test: microbe, parasite or virus in culture; format: cell-based, Pseudomonas aeruginosa; conditions: Table S2, XDR clinical isolate; NaCl content of medium not stated; read-out: Minimum inhibitory concentration
Method: as §1

E. cloacae (XDR CI 4172) = test: microbe, parasite or virus in culture; format: cell-based, Enterobacter cloacae; conditions: read-out: Minimum inhibitory concentration
Method: as §1

[4] = test system: E. coli XDR CI 1057 (26 days with mini-ChBac7.5Nα)
Method: as §1, with “After incubation at 37°C and 900 rpm for 24 h the minimum inhibitory concentrations (MIC) were determined as the lowest peptide concentrations that prevented growth of a test microorganism observed as visible turbidity.” left out
(§2) Resistance induction experiments were performed using the previously described method ([Chernysh et al., 2015]) with some modifications. Briefly, on day 1, the overnight culture of wild-type bacteria was diluted with the 2× MH broth containing 1.8% NaCl so that to reach a final cell concentration of 10^6 CFU/ml. 50 μl aliquots of the obtained bacterial suspension were added to 50 μl of the peptide solutions serially diluted with 0.1% water solution of BSA in 96-well microplates (Eppendorf #0030730011). After incubation at 37°C and 900 rpm for 22 ± 2 h, MICs were determined as described above. For each subsequent daily transfer, 5 μl of the inoculum taken from the first well with a sub-inhibitory drug concentration were diluted with 1 ml of the fresh 2× MH broth supplemented with 1.8% NaCl. […] 26 repeated passages in the presence of antimicrobial agents were made for each bacterial strain during the experiment. […] Control serial passages in the absence of the agent were also performed.

[5] = test system: E. coli XDR CI 1057 (26 days without antimicrobial agent)
Method: as §1, with “After incubation at 37°C and 900 rpm for 24 h the minimum inhibitory concentrations (MIC) were determined as the lowest peptide concentrations that prevented growth of a test microorganism observed as visible turbidity.” left out
as §2

[6] = test system: E. coli XDR CI 1057 (26 days with synergy combination); conditions: Table 4, strain after 26 days with synergy combination (selection in MH broth with 0.9% NaCl)
Method: as §1, with “After incubation at 37°C and 900 rpm for 24 h the minimum inhibitory concentrations (MIC) were determined as the lowest peptide concentrations that prevented growth of a test microorganism observed as visible turbidity.” left out
as §2

[7] = test system: P. mirabilis (XDR CI 3423); test: microbe, parasite or virus in culture; format: cell-based, Proteus mirabilis; conditions: Table S2, XDR clinical isolate; NaCl content of medium not stated; read-out: Minimum inhibitory concentration
Method: as §1

E. coli ML-35p [8] = test: Resistance induction experiment; format: cell-based, Escherichia coli; conditions: after 25 passages under selection; MH broth, 0.9% NaCl
Method: as §2

E. coli (XDR CI 1057) = test: microbe, parasite or virus in culture; format: cell-based, Escherichia coli
Method: as §1

[9] = test system: mammalian cell lines (HEK293T, HEF); test: Cytotoxicity (MTT assay); format: cell-based, human; conditions: HEK293T and HEF, 24 h incubation
Method: Hemolytic activity of the peptides was tested against the fresh suspension of human red blood cells (hRBC) using the hemoglobin release assay as described previously ([Panteleev et al., 2016]). Three experiments were performed with the hRBC from blood samples obtained from independent donors. The obtained data were represented as average means with standard deviations. The cytotoxicity of the peptides against HEK293T (transformed human embryonic kidney cells) and HEF (human embryonic fibroblasts) cell lines was studied using the colorimetric 3-(4,5-dimethylthiazol-2-yl)-2,5-diphenyltetrazolium bromide (MTT) dye reduction assay according to ([Panteleev and Ovchinnikova, 2017]). Three independent experiments were performed for each peptide. Half maximal inhibitory concentration (IC50) values were estimated as described previously ([Kuzmin et al., 2018]).

P. aeruginosa PAO1 = format: cell-based, Pseudomonas aeruginosa; conditions: Mueller-Hinton broth, 10^6 CFU/ml, 0.1% BSA, 37°C, 24 h, median of at least 3 experiments
Method: as §1

S. aureus 209P = format: cell-based, Staphylococcus aureus; conditions: Mueller-Hinton broth, 10^6 CFU/ml, 0.1% BSA, 37°C, 24 h, median of at least 3 experiments
Method: as §1

B. subtilis B-886 = format: cell-based, Bacillus subtilis; conditions: Mueller-Hinton broth, 10^6 CFU/ml, 0.1% BSA, 37°C, 24 h, median of at least 3 experiments
Method: as §1

E. coli ML-35p [10] = format: cell-based, Escherichia coli; conditions: Mueller-Hinton broth, 10^6 CFU/ml, 0.1% BSA, 37°C, 24 h, median of at least 3 experiments
Method: as §1

E. coli C600 = format: cell-based, Escherichia coli; conditions: Mueller-Hinton broth, 10^6 CFU/ml, 0.1% BSA, 37°C, 24 h, median of at least 3 experiments
Method: as §1

M. luteus B-1314 = format: cell-based, Micrococcus luteus; conditions: Mueller-Hinton broth, 10^6 CFU/ml, peptide diluted in 0.1% BSA, 37°C, 24 h, median of at least 3 experiments in triplicate
Method: as §1

[11] = test system: mini-ChBac7.5Nα-resistant E. coli strain; conditions: peptide alone, before addition of ChMAP-28
Method: as §1, with “After incubation at 37°C and 900 rpm for 24 h the minimum inhibitory concentrations (MIC) were determined as the lowest peptide concentrations that prevented growth of a test microorganism observed as visible turbidity.” left out
as §2

K. pneumoniae (CI 287) = format: cell-based, Klebsiella pneumoniae; conditions: Mueller-Hinton broth, 10^6 CFU/ml, 0.1% BSA, 37°C, 24 h, median of at least 3 experiments
Method: as §1

E. faecalis ATCC 29212 = format: cell-based, Enterococcus faecalis; conditions: Mueller-Hinton broth, 10^6 CFU/ml, 0.1% BSA, 37°C, 24 h, median of at least 3 experiments
Method: (§3) Briefly, mid-log phase bacterial test cultures were diluted with the 2× Mueller-Hinton broth (MH, Sigma) supplemented with 1.8% NaCl or without it so that to reach a final cell concentration of 10^6 CFU/ml. 50 μl aliquots of the obtained bacterial suspension were added to 50 μl of the peptide solutions serially diluted with 0.1% water solution of bovine serum albumin (BSA) in 96-well flat-bottom polystyrene microplates (Eppendorf #0030730011). […] The results were expressed as the median values determined on the basis of at least three independent experiments performed in triplicate.

S. aureus ATCC 29213 = format: cell-based, Staphylococcus aureus; conditions: Mueller-Hinton broth, 10^6 CFU/ml, 0.1% BSA, 37°C, 24 h, median of at least 3 experiments
Method: as §3

[12] = test system: E. coli V102G mutant strain (SbmA); design: method as in Corbalan et al., 2013; conditions: ref Corbalan et al., 2013; cited from earlier work
[13] = Table S2, XDR clinical isolate, NaCl content of medium not stated
[14] = 0.9% NaCl, Mueller-Hinton broth, 10^6 CFU/ml, 0.1% BSA, 37°C, 24 h, median of at least 3 experiments
[15] = Without NaCl, Mueller-Hinton broth, 10^6 CFU/ml, 0.1% BSA, 37°C, 24 h, median of at least 3 experiments

Molecule: CC[C@H](C)CCCCC(=O)N[C@@H](CCN)C(=O)N[C@H](C(=O)N[C@@H](CCN)C(=O)N[C@H]1CCNC(=O)[C@H]([C@@H](C)O)NC(=O)[C@H](CCN)NC(=O)[C@H](CCN)NC(=O)[C@H](CC(C)C)NC(=O)[C@@H](Cc2ccccc2)NC(=O)[C@H](CCN)NC1=O)[C@@H](C)O [Polymyxin B, reference compound] (X1-[Dab]T[Dab][Dab][Dab][dF]L[Dab][Dab]T; lactam 4-C (inferred); N-terminus assumed)
- MIC [1, 13]: 0.125 µM (≈ 0.15 µg/mL)
- MIC [2]: 0.25 µM (≈ 0.301 µg/mL)
- increase in MIC value (E. coli XDR CI 1057; after 25 passages under selection): 2048 fold
- MIC value after resistance development (E. coli XDR CI 1057; selection by polymyxin B): > 256 µM
- MIC [3]: 2 µM (≈ 2.41 µg/mL)
- MIC (E. cloacae (XDR CI 4172); [13]): 4 µM (≈ 4.81 µg/mL)
- Minimum inhibitory concentration ([4]; Table 4, strain after 26 days with mini-ChBac7.5Nα (selection in MH broth with 0.9% NaCl)): 0.125 µM (≈ 0.15 µg/mL)
- Minimum inhibitory concentration ([5]; Table 4, strain after 26 days without antimicrobial agent (selection in MH broth with 0.9% NaCl)): 0.125 µM (≈ 0.15 µg/mL)
- Minimum inhibitory concentration [6]: 0.06 µM
- MIC [7]: >128 µM
- increase in MIC value (E. coli ML-35p [8]): 128 fold
- Minimum inhibitory concentration (E. coli (XDR CI 1057); Table 4, strain at 0 days of selection experiment (selection in MH broth with 0.9% NaCl)): 0.125 µM (≈ 0.15 µg/mL)
- Minimum inhibitory concentration (E. coli (XDR CI 1057); [13]): 0.125 µM (≈ 0.15 µg/mL)

Molecule: RRLRPRRPRLPRPRPR [mini-ChBac7.5Nα(1–16)]
- MIC [1, 14]: >32 µM
- MIC [1, 15]: 4 µM
- concentrations at which cytotoxic activity was shown [9]: > 25 µM
- Minimum inhibitory concentration (P. aeruginosa PAO1; 0.9% NaCl): >32 µM
- Minimum inhibitory concentration (P. aeruginosa PAO1; Without NaCl): 16 µM
- Minimum inhibitory concentration (S. aureus 209P; 0.9% NaCl): >32 µM
- Minimum inhibitory concentration (S. aureus 209P; Without NaCl): 8 µM
- Minimum inhibitory concentration (B. subtilis B-886; 0.9% NaCl): >32 µM
- Minimum inhibitory concentration (B. subtilis B-886; Without NaCl): 1 µM
- Minimum inhibitory concentration (E. coli ML-35p [10]; 0.9% NaCl): 8 µM
- Minimum inhibitory concentration (E. coli ML-35p [10]; Without NaCl): 0.5 µM
- Minimum inhibitory concentration (E. coli C600; 0.9% NaCl): 16 µM
- Minimum inhibitory concentration (E. coli C600; Without NaCl): 2 µM
- Minimum inhibitory concentration (M. luteus B-1314; 0.9% NaCl): 8 µM
- Minimum inhibitory concentration (M. luteus B-1314; Without NaCl): 1 µM
- MIC (E. cloacae (XDR CI 4172); [14]): >32 µM
- MIC (E. cloacae (XDR CI 4172); [15]): 1 µM
- Minimum inhibitory concentration ([4]; With 0.9% NaCl, resistant strain, 26 days with mini-ChBac7.5Nα): >256 µM
- Minimum inhibitory concentration ([4]; Without salt, resistant strain, 26 days with mini-ChBac7.5Nα): 16 µM
- MIC of the individual peptide [11]: > 256 µM
- Minimum inhibitory concentration ([5]; With 0.9% NaCl, control strain, 26 days without antimicrobial agent): 16 µM
- Minimum inhibitory concentration ([5]; Without salt, control strain, 26 days without antimicrobial agent): 2 µM
- Minimum inhibitory concentration (K. pneumoniae (CI 287); 0.9% NaCl): >32 µM
- Minimum inhibitory concentration (K. pneumoniae (CI 287); Without NaCl): 4 µM
- Minimum inhibitory concentration (E. faecalis ATCC 29212; 0.9% NaCl): >32 µM
- Minimum inhibitory concentration (E. faecalis ATCC 29212; Without NaCl): >32 µM
- Minimum inhibitory concentration (S. aureus ATCC 29213; 0.9% NaCl): >32 µM
- Minimum inhibitory concentration (S. aureus ATCC 29213; Without NaCl): >32 µM

Molecule: Bac7(1–16): minimal active fragment of the bovine 60-residue Pro-rich peptide Bac7 (RRIRPRPPRLPRPRPR; Bactenecin 7; UniProt P19661 131-146, looked up, fragment)
- MIC [12]: 156 µM
